Measured values: patent US20080194485A1, “Detection and Use of Prolylcarboxypeptidase” (YALE UNIVERSITY, priority 2004, published 2008)
Residues, ends and D or L forms follow the SMILES beside them. *: point of attachment. Cbz = O=C(OCc1ccccc1)*

How the values were obtained:
ob/ob mice [1] = assay: IP injection of Z-PP, food intake in ob/ob mice; type: in vivo, mouse
Description: For this study 10 ob/ob mice were used. Mice were injected at the beginning of the dark phase intraperitoneally with 2 doses of 5 mg Z-PP every 12 hours and food intake was measured every 12 hours after the last injection. Control mice were injected at the same times and with the same volume of vehicle. Note that for Z-PP doses lower than 5 mg were ineffective in reducing food intake.

wild type mice = assay: IP administration of α-MSH and MTII, food intake in wild type mice; type: in vivo, mouse; details: 200 nmol ip
Description: Wild type and PRCP KO mice were used in this study. Animals were single caged and injected with saline at the beginning of the dark phase for 3 days. For each mouse, food intake was measured at 4, 12 and 24 hours after the injection. After 3 days, animals were divided in 6 groups: 1) wild type mice receiving 200 nmol MTII in saline; 2) wild type mice receiving 200 nmol α-MSH in saline; 3) wild type mice receiving saline; 4) PRCP KO mice receiving 200 nmol of MTII in saline; 5) PRCP KO mice receiving 200 nmol α-MSH; 6) PRCP KO mice receiving saline.

POMC-GFP neurons = assay: Whole cell patch clamp electrophysiology of POMC-GFP neurons in hypothalamic slices; type: cell-based, mouse; details: bath application, current clamp
Description: Coronal hypothalamic brain slices (˜300 μm) were prepared with a Vibratome from POMC-GFP transgenic mice. Slices were maintained at room temperature in artificial cerebrospinal fluid saturated with 95% O2 and 5% CO2. Slices were equilibrated in the recording chamber for 1 hr at 35° C. in ACSF saturated with 95% O2 and 5% CO2 prior to recordings. ACSF contains (mM): NaCl, 124; KCl, 3; CaCl2, 2; MgCl2, 2; NaH2PO4, 1.23; NaHCO3, 26; glucose, 10; pH 7.4 with NaOH. An upright fluorescence/infrared microscope with long working distance objectives (Olympus BX51WI) and fluorescence filter sets for GFP (Chroma Technology Corp) was used. Fluorescent POMC-GFP neurons were selected and a patch pipette (4-6 mega Ohm resistance) was advanced onto the surface of the neuron by a micromanipulator (Sutter 225). The pipette solution contains (in mM) K gluconate, 128; HEPES, 10; EGTA, 1; KCl, 10; MgCl2, 1; CaCl2, 0.3; (Mg)-ATP, 5; (Na)GTP, 0.3, PH.7.4. Whole cell patch clamp experiments were performed with a Multiclamp 700A amplifier (Axon Instruments, Inc). Whole cell current clamp was used to monitor the effect of α-MSH on membrane potential of recorded neurons held at resting membrane potential. […] Eletrophysiological data were analyzed with Axograph 4.9 (Axon Instruments), plotted with Igor Pro software (WaveMetrics, Lake Oswego, Oreg., USA) and presented as the mean±SEM. […]

fasted rats = assay: ICV injection of α-MSH and α-MSH1-12, food intake in fasted rats; type: in vivo, rat; details: 2.5 μg ICV, 12 hour-fasted rats
Description: Eighteen male rats (200-250 gr) were used in this study. Animals with a third ventricle cannulation were purchased from Taconic Farms Inc. Rats were single caged and divided in 3 groups: animals injected with saline, animals injected with 2.5 μg of […]-MSH and animals injected with 2.5 μg of α-MSH1-12. All the rats were fasted overnight. The next morning, the animals were injected and a known amount of food was given and measured after 2 hours from re-feeding (Abbott et al., 2000).

[2] = target: T1, rPRCP51 (recombinant PRCP) (Homo sapiens, UniProt P42785); assay: Substrate inhibition assay: rPRCP51-induced prekallikrein (PK) activation; type: biochemical; details: at 1 mM peptide
T1 construct: Human PRCP cDNA, lacking the first 391 base pairs of PRCP (Prcpnt391-1845); BiP secretion signal (from vector pMT/BiP/V5-His C) (N); His tag (from vector pMT/BiP/V5-His C) (C); made in house; host or cells: Schneider 2 (Drosophila S2) cells
T1 sequence (P42785 46-496): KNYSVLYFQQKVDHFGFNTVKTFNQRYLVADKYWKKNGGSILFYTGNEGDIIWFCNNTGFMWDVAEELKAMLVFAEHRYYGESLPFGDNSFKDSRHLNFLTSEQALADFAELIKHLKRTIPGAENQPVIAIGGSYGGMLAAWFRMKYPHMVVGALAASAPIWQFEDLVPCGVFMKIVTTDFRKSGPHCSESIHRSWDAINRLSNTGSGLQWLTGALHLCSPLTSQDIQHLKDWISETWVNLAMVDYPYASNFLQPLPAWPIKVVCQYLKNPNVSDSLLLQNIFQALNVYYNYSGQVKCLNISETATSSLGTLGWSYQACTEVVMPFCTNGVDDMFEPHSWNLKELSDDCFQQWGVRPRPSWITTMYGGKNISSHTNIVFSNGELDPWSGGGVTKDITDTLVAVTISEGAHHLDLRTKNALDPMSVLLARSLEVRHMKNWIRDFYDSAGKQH
Description: Panel A: Increasing concentration of α-MSH, MSH1-12, or AgII (0.001-1 mM) were incubated with 8 nM of recombinant PRCP51 at 37° C. in microtiter plate cuvette wells with preabsorbed HK and containing 20 nM PK. The liberation of paranitroanilide (pNA) from the S2302 by the formed plasma kallikrein in the presence of the peptide was measured at 405 nm and the results are expressed as residual formed plasma kallikrein activity. The data represent the mean±SEM of three independent measurements.
pMT/BiP/V5-His C was employed as the basal plasmid in vector construction. […]
Samples containing 8 nM rPRCP51 in […] total volume were prepared in the absence or presence of increasing concentration of peptide α-MSH, MSH1-12 or AgII in HEPES carbonate buffer (137 mM NaCl, 3 mM KCl, 12 mM NaHCO3, 14.7 mM HEPES, 5.5 mM dextrose and 0.1% gelatin, pH 7.1 containing 10 mM CaCl2, and 1 mM MgCl2) in microtiter plate cuvette wells with previously absorbed HK at […] and with 20 nM PK at 37° C. The ability of purified rPRCP51 to activate PK bound to HK on plastic microtiter plates was determined in the absence or presence of increasing concentrations (0.001-1 mM) of the peptide (McCarthy et al., 2003; Shariat-Madar et al., 2002). […] The rate of hydrolysis was recorded at different concentrations of peptide and expressed as percent kallikrein activity remaining. […]

rats = assay: ICV injection of B-PP, food intake in rats; type: in vivo, rat
Description: Twelve male rats (200-250 gr) were used in this study. Animals with a third ventricle cannulation were purchased from Taconic Farms Inc. […] A known amount of food was given to the animals and weighted every 24 hours.

ob/ob mice [3] = assay: IP injection of B-PP, food intake in ob/ob mice; type: in vivo, mouse; details: 400 μg systemically (ip)
Description: For this study 10 ob/ob mice were used. Mice were injected at the beginning of the dark phase intraperitoneally with 2 doses of […] of B-PP every 24 hours and food intake was measured before each injection and every 24 hours after the last administration. Control mice were injected at the same times and with same volume of vehicle.

Compound: O=C[C@@H]1CCCN1C(=O)[C@@H]1CCCN1C(=O)OCc1ccccc1 [Z-PP, N-benzyloxycarbonyl-prolyl-prolinal] (Cbz-Pro-Pro-aldehyde)
- food intake compared to vehicle controls (ob/ob mice [1]; 5 mg ip, after 24 hours from the last injection): no difference
- effect on food intake (ob/ob mice [1]; 5 mg ip, ob/ob mice): suppress food intake, but with lower efficacy than that of B-PP
- effect in reducing food intake (ob/ob mice [1]; doses lower than 5 mg ip, ob/ob mice): ineffective

Compound: Ac-Nle^4-c[Asp^5, D-Phe^7, Lys^10] α-MSH-(4-10)-NH2 [MTII]
- food intake compared to 100% controls (wild type mice): 35.5%

Compound: Ac-STSMEHFRWGKP-COOH (Ac-STSMEHFRWGKP-OH) [α-MSH1-12, putative product of PRCP hydrolysis of α-MSH, lacks the C-terminal Val]
- hyperpolarization of POMC membrane potential (POMC-GFP neurons): undetectable
- effect on food intake compared to saline controls (fasted rats): did not significantly affect food intake
- food intake (fasted rats; 2 hours from re-feeding): 8.89 ± 0.90 g
- inhibition of rPRCP51 activity [2]: about 20%

Compound: t-butyl carbamate (BOC)-prolyl prolinal [B-PP]
- food intake, percent (rats; after 24 hours from the administration, controls 94.91%): 36.7%
- food intake, percent (rats; after 48 hours from the administration, controls 97.67%): 89.24%
- effect on body weight gain (ob/ob mice [3]): suppressed
- effect on food intake (ob/ob mice [3]): suppressed
